Laboratory results: PubChem BioAssay AID2060899 (Molecular Pharmacology Branch, DTP, NCI, 2025)

System: 565726-208-R1-J5-PDC complex spheroids, growth inhibition
Assay: Anticancer human tumor 565726-208-R1-J5-PDC patient-derived pancreatic adenocarcinoma cell line growth inhibition [RAS]
Conditions: for IC50: curve of first compound; for viability, T/C: stronger effect = lower value
Description: RAS pathway inhibitors in Combinations in Complex Spheroids
A high-throughput screen of multi-cell type tumor spheroids was designed to identify active combinations of RAS pathway inhibitors and targeted small molecules. Complex spheroids include a stromal component modeled by human endothelial cells (HUVEC) and fibroblasts modeled by human mesenchymal stem cells (MSCs). The concentration ranges selected for each drug and investigational agent were based upon clinically achievable concentrations if the clinical Cmax of the agent was known.
Compounds. The drugs and investigational agents: abemaciclib (NSC768073), cobimetinib (NSC768068), divarasib (GDC6063, NSC841802), docetaxel (NSC628503), GDC-1971 (RLY-1971, NSC841576), gemcitabine (NSC613327), inavolisib (NSC800729), ipatasertib (NSC767898), KB-0742 (NSC834161), MRTX-1133 (NSC836407), osimertinib (NSC779217), RMC-4630 (NSC839698), RMC-6236 (NSC851965), RMC-6291 (NSC852671), Ro-3306 (NSC812927), sapanisertib (NSC764658), SN-38 (NSC673596), staurosporine (NSC755774), SY5609 (NSC837396), and tovorafenib (DAY101, NSC766906), were obtained from the National Cancer Institute (NCI) Developmental Therapeutics Program Chemical Repository. The FDA-approved anticancer drug set is available from the NCI Developmental Therapeutics Program. […] The stock solutions were prepared in dimethyl sulfoxide (DMSO, Sigma-Aldrich, St. Louis, MO, cat. D2650) at 800-fold the tested concentration and stored at -70 degrees C prior to their use. All drugs and investigational agents were tested over a range starting from a high concentration at or near the clinical Cmax and decreasing in half-log increments. If the clinical Cmax for an agent had not been determined, the highest concentration tested was 10 microM.
Cell Culture. All cells were maintained in an incubator at 37 degrees C and 5% CO2 with 95% humidity. The PDC lines were cultured according to standard operating procedures established by the NCI PDMR. All PDCs were thawed and cultured in Matrigel-coated flasks prepared with a working solution of 1X Ham's F-12 nutrient mix, without supplementation (Invitrogen, Waltham, MA, cat. 11765054), 100 U/mL penicillin-streptomycin (Invitrogen, cat. 15140122), and 2.5% Matrigel (Corning Inc., Corning, NY, cat. 354248) for the first three passages. The 362531-283-R-J2-PDC and 782815-120-R-J1-PDC lines were cultured in 6C/Colon 1B media, which includes advanced DMEM/F-12 (Thermo Fisher Scientific, cat. 12634028), 10 mM HEPES (Thermo Fisher Scientific, cat. 15630080), 1X GlutaMAX supplement (Thermo Fisher Scientific, cat. 35050061), 0.1 mg/mL primocin (InvivoGen, San Diego, CA, cat. ant-pm-2), 10% defined fetal bovine serum, heat inactivated (HyClone Laboratories Inc., Logan, UT, cat. SH30070.03HI), 50% L-WRN conditioned media (ATCC, cat. CRL-3276), 1.25 mM N-Acetyl-L-cysteine (Sigma-Aldrich, cat. A9165), 10 mM nicotinamide (Sigma-Aldrich, cat. N0636), 1X B-27 supplement (Thermo Fisher Scientific, cat. 17504044), 1X N-2 supplement (Thermo Fisher Scientific, cat. 17502048), 50 ng/mL human EGF (Thermo Fisher Scientific, cat. PHG0311), and 10 microM Y-27632 dihydrochloride (Tocris Bioscience, cat. 1254). The K12877-001-R-J1-PDC line was cultured in 6I media, which includes all 6C/Colon 1B media plus 10 ng/mL human FGF-10 (PeproTech, cat. 100-26), 1 ng/mL human FGF-2 (PeproTech, cat. 100-18B), 1 µM prostaglandin E2 (Tocris Bioscience, cat. 2296), […] hydrocortisone (Sigma-Aldrich, cat. H4001), and […] bovine insulin (Sigma-Aldrich, cat. I6634). The K86415-001-R-J1-PDC line was cultured in 6D media, which includes all 6C/Colon 1B media components minus the L-WRN conditioned media. The 485176-168-R4-J1-PDC was cultured in PANC media, which includes all 6C/Colon 1B media plus 100 ng/mL human FGF-10 (PeproTech, cat. 100-26), 500 nM SB-431542 (Selleckchem, cat. S1067), and 10 nM gastrin (Tocris Bioscience, cat. 3006). […]

[1] = second compound 0.0316 µM, first compound 0.0316 µM
[2] = second compound 0.0316 µM, first compound 0.1 µM
[3] = second compound 0.0316 µM, first compound 0.316 µM
[4] = second compound 0.0316 µM, first compound 1 µM
[5] = second compound 0.1 µM, first compound 0.0316 µM
[6] = second compound 0.1 µM, first compound 0.1 µM
[7] = second compound 0.1 µM, first compound 0.316 µM
[8] = second compound 0.1 µM, first compound 1 µM
[9] = second compound 0.316 µM, first compound 0.0316 µM
[10] = second compound 0.316 µM, first compound 0.1 µM
[11] = second compound 0.316 µM, first compound 0.316 µM
[12] = second compound 0.316 µM, first compound 1 µM
[13] = second compound 1 µM, first compound 0.0316 µM
[14] = second compound 1 µM, first compound 0.1 µM
[15] = second compound 1 µM, first compound 0.316 µM
[16] = second compound 1 µM, first compound 1 µM
[17] = second compound 3.16 µM, first compound 0.0316 µM
[18] = second compound 3.16 µM, first compound 0.1 µM
[19] = second compound 3.16 µM, first compound 0.316 µM
[20] = second compound 3.16 µM, first compound 1 µM
[21] = second compound 10 µM, first compound 0.0316 µM
[22] = second compound 10 µM, first compound 0.1 µM
[23] = second compound 10 µM, first compound 0.316 µM
[24] = second compound 10 µM, first compound 1 µM
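Further: spheroids exposed to compounds for seven days before readout.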
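Wherever viability, T/C is given: 100% = DMSO vehicle control viability.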

CC(Nc1ccc2c(c1)OCCn1cc(N3C(=O)OCC3C(F)F)nc1-2)C(N)=O (centres undefined) + C#Cc1c(F)ccc2cc(O)cc(-c3ncc4c(N5CC6CCC(C5)N6)nc(OCC56CCCN5CC(F)C6)nc4c3F)c12
IC50 (second compound 0.0316 µM): > 10000 nM
IC50 (second compound 0.1 µM): > 10000 nM
IC50 (second compound 0.316 µM): > 10000 nM
IC50 (second compound 1 µM): > 10000 nM
IC50 (second compound 3.16 µM): 487 nM
IC50 (second compound 10 µM): 527 nM
viability, T/C [1]: 73.2%
viability, T/C [2]: 101%
viability, T/C [3]: 86.5%
viability, T/C [4]: 60.4%
viability, T/C (second compound 0.0316 µM, first compound 3.16 µM): 92.9%
viability, T/C (second compound 0.0316 µM, first compound 10 µM): 70.2%
viability, T/C [5]: 87.5%
viability, T/C [6]: 102%
viability, T/C [7]: 73.9%
viability, T/C [8]: 53.5%
viability, T/C (second compound 0.1 µM, first compound 3.16 µM): 81.2%
viability, T/C (second compound 0.1 µM, first compound 10 µM): 65.5%
viability, T/C [9]: 105%
viability, T/C [10]: 109%
viability, T/C [11]: 72.9%
viability, T/C [12]: 55.1%
viability, T/C (second compound 0.316 µM, first compound 3.16 µM): 69.2%
viability, T/C (second compound 0.316 µM, first compound 10 µM): 62.5%
viability, T/C [13]: 114%
viability, T/C [14]: 102%
viability, T/C [15]: 57.2%
viability, T/C [16]: 60.2%
viability, T/C (second compound 1 µM, first compound 3.16 µM): 47.4%
viability, T/C (second compound 1 µM, first compound 10 µM): 54.6%
viability, T/C [17]: 90.5%
viability, T/C [18]: 80%
viability, T/C [19]: 56.4%
viability, T/C [20]: 38.7%
viability, T/C (second compound 3.16 µM, first compound 3.16 µM): 35.6%
viability, T/C (second compound 3.16 µM, first compound 10 µM): 45.3%
viability, T/C [21]: 60.8%
viability, T/C [22]: 68.9%
viability, T/C [23]: 51.1%
viability, T/C [24]: 46.7%
viability, T/C (second compound 10 µM, first compound 3.16 µM): 30.7%
viability, T/C (second compound 10 µM, first compound 10 µM): 34.7%

O=C(c1ccc(F)c(F)c1Nc1ccc(I)cc1F)N1CC(O)([C@@H]2CCCCN2)C1 + C#Cc1c(F)ccc2cc(O)cc(-c3ncc4c(N5CC6CCC(C5)N6)nc(OCC56CCCN5CC(F)C6)nc4c3F)c12
IC50 (second compound 0.0316 µM): 593 nM
IC50 (second compound 0.1 µM): > 1000 nM
IC50 (second compound 0.316 µM): 95 nM
IC50 (second compound 1 µM): 76.8 nM
IC50 (second compound 3.16 µM): 83.4 nM
IC50 (second compound 10 µM): 26.3 nM
viability, T/C (second compound 0.0316 µM, first compound 0.00316 µM): 118%
viability, T/C (second compound 0.0316 µM, first compound 0.01 µM): 131%
viability, T/C [1]: 74.8%
viability, T/C [2]: 76.5%
viability, T/C [3]: 78.3%
viability, T/C [4]: 33.3%
viability, T/C (second compound 0.1 µM, first compound 0.00316 µM): 116%
viability, T/C (second compound 0.1 µM, first compound 0.01 µM): 138%
viability, T/C [5]: 69.1%
viability, T/C [6]: 62.3%
viability, T/C [7]: 63.6%
viability, T/C [8]: 34.8%
viability, T/C (second compound 0.316 µM, first compound 0.00316 µM): 117%
viability, T/C (second compound 0.316 µM, first compound 0.01 µM): 118%
viability, T/C [9]: 67.3%
viability, T/C [10]: 53.9%
viability, T/C [11]: 62.7%
viability, T/C [12]: 31%
viability, T/C (second compound 1 µM, first compound 0.00316 µM): 133%
viability, T/C (second compound 1 µM, first compound 0.01 µM): 103%
viability, T/C [13]: 62.8%
viability, T/C [14]: 43%
viability, T/C [15]: 58%
viability, T/C [16]: 28.8%
viability, T/C (second compound 3.16 µM, first compound 0.00316 µM): 109%
viability, T/C (second compound 3.16 µM, first compound 0.01 µM): 91.7%
viability, T/C [17]: 65.6%
viability, T/C [18]: 38.8%
viability, T/C [19]: 43.7%
viability, T/C [20]: 17.8%
viability, T/C (second compound 10 µM, first compound 0.00316 µM): 88.1%
viability, T/C (second compound 10 µM, first compound 0.01 µM): 63%
viability, T/C [21]: 39%
viability, T/C [22]: 38.9%
viability, T/C [23]: 22.1%
viability, T/C [24]: 5.94%
